Read-outs that look alike come from different tables or passages of the source.
How the values were obtained:
[1] = biological target: COMT (catechol-O-methyl transferase) (Sus scrofa, UniProt D3K5L3); experiment: Receptor cross-reactivity enzyme panel (CEREP); assay type: biochemical; conditions: read-out: % Ligand Inhibition, COMT
Description: The receptor cross-reactivity profile is composed of 71 binding and 27 enzyme assays. The binding assay panel is broadly defined with roughly an equal number of selective, central and peripheral therapeutically relevant targets. The enzyme assay panel includes the most representative targets from diverse enzyme families with a particular focus on phosphatases and specific enzymes involved in cell cycle regulation. Assays where performed by CEREP, Seattle, Wash., with protocols similar to Cordeaux, Y. et al., 2004 Brit. J. Pharmacol., 143:705-714. JB6121 was tested for receptor cross reactivity at 10 μM for approximately 100 receptors and enzymes. Any % inhibition greater than 50% (IC50<10 μM) is highlighted below in Table 7.

[2] = Pharmacokinetic study in rats, IV and PO, whole blood (Charles River); assay type: in vivo, Sprague-Dawley rats
Protocol: A pharmacokinetic study was performed by Charles River Wilmington Mass., in rats and the doses where 2 mg/kg IV and 10 mg/kg PO and whole blood levels were measured for 72 h. The calculated pharmacokinetic parameters for 24 h are given below in Table 8.
Six (6) male Sprague-Dawley rats were selected from the Testing Facility's rodent colony. The animals were enrolled in the study based on acceptable health as determined by a Testing Facility veterinarian and based on patency of femoral and jugular vein catheters. Fasting was performed for at least 16 hours prior to dosing. Food was also withheld until after the 4 hour time point collection. The animals were placed into 2 groups of 3 animals per group. Each animal in Group 1 received prepared JB6121 by intravenous dose administration at a target dose level of 2 mg/kg and at a dose volume of 1 mL/kg. Immediately following intravenous dosing, the inter-dwelling catheter was flushed with 0.5 mL of saline. Each animal in Group 2 received prepared JB6121 by oral gavage dose administration at a target dose level of 10 mg/kg and at a dose volume of 10 mL/kg.
Whole blood samples (0.300 mL; K2EDTA anticoagulant) were collected from each animal through a jugular vein catheter. Whole blood samples were collected from all animals at 30 minutes and at 1, 2, 4, 6, 12, 24, 48, and 72 hours after dose administration.
Whole blood samples were transferred to the Charle River Bioanalytical Sciences Laboratory, Wilmington Mass., for analysis. Pharmacokinetic parameters were estimated using Watson pharmacokinetic software (Version No. 7.2) using a non-compartmental approach consistent with the IV or PO route of administration.

P-glycoprotein = biological target: T1, P-glycoprotein (Homo sapiens, UniProt P08183); experiment: P-glycoprotein inhibition (CEREP); assay type: in vitro ADME
T1 construct: CEREP (contract laboratory)
T1 sequence (P08183 whole entry): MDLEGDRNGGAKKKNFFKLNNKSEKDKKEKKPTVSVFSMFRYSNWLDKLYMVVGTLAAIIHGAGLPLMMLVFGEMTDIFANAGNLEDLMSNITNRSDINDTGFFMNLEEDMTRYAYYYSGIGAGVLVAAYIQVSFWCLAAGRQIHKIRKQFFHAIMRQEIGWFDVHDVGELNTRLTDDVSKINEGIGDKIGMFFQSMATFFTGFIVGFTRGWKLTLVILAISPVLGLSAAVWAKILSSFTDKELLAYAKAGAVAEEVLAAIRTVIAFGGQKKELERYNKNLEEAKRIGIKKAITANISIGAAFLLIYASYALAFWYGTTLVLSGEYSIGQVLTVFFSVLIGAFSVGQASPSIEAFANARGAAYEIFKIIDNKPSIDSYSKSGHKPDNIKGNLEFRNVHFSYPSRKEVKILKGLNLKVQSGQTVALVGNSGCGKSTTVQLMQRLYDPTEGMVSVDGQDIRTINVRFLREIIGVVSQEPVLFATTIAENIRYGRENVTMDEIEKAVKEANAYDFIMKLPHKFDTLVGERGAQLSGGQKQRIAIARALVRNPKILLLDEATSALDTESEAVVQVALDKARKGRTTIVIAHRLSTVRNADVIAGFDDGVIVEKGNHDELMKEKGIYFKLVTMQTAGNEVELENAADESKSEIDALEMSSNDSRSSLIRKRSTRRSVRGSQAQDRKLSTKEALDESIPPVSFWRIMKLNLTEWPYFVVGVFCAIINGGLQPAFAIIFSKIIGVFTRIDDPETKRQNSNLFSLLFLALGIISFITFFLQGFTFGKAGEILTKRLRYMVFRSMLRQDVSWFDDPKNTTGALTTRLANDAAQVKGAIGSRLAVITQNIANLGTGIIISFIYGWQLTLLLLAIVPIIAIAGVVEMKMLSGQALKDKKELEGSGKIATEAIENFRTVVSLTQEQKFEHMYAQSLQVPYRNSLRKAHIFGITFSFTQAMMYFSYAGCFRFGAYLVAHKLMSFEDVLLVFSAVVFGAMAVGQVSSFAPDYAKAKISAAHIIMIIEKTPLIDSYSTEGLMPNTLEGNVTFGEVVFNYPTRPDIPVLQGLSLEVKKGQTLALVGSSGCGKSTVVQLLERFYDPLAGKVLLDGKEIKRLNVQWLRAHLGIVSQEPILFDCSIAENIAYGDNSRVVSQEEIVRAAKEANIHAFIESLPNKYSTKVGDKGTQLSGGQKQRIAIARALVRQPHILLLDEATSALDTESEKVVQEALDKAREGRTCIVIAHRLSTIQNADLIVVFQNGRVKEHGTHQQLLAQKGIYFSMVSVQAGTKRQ
Protocol: Preliminary screening measures were conducted by CEREP. All values fall within acceptable limits (Table 5). Solubility assays where performed by CEREP, Seattle, Wash., according to Lipinski, C. A. et al., 1997, Adv. Drug Del. Rev., 46:3-26. Protein binding assays where performed by CEREP, Seattle, Wash., according to Banker, M. J. et al., 2003, J. Pharm. Sci., 92:967-974. Permeability assays where performed by CEREP, Seattle, Wash. according to Hildalgo, I. J., 1998, Gastroenterology, 96:736-749. Metabolic stability assays where performed by CEREP, Seattle, Wash., according to Obach, R. S. et al., 1997, J. Pharmacol. Exp. Ther., 283:46-58. P-glycoprotein inhibition assays where performed by CEREP, Seattle, Wash., according to Polli, J. W. et al., 2001, J. Pharm. Exp. Ther., 299:620-628. Cell viability assays where performed by CEREP, Seattle, Wash., according to Mosmann, T., 1983, J. Immunol. Met. 65:55-62. hERG automated patch clamp assays where performed by CEREP, Seattle, Wash., according to Mathes, C., 2006, Expert Opin. Ther. Targets, 10:230-241.

[3] = male, Sprague-Dawley, whole blood, Rat, PO 10.0 mg/kg

Sequence of COMT (catechol-O-methyl transferase) (D3K5L3 entry or part of it): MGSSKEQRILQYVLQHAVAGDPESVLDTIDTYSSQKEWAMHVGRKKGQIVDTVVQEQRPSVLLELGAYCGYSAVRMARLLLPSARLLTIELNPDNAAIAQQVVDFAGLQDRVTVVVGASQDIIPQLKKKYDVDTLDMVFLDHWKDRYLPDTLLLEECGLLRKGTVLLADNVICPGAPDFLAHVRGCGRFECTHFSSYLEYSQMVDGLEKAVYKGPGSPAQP

CN1CCN(c2nc(NCCN3CCOCC3)c3nc(Cl)c(NCCN4CCOCC4)nc3n2)CC1 [JB6121, 6-chloro-2-(4-methylpiperazin-1-yl)-N^4,N^7-bis(2-morpholinoethyl)pteridine-4,7-diamine]
inhibition at 10 µM [1]: 53.5%
AUC ([2]; male, Sprague-Dawley, rat, whole blood, iv, 2 mg/kg, Rat, IV 2.0 mg/kg, read-out: AUC): 2040 ng·h/mL
AUC ([2]; male, Sprague-Dawley, rat, whole blood, iv, 2 mg/kg, Rat, IV 2.0 mg/kg, read-out: AUC Extrap): 2230 ng·h/mL
bioavailability ([2]; male, Sprague-Dawley, rat, whole blood, oral, 10 mg/kg, summary statement, read-out: in vivo bioavailability): > 20%
AUC ([2]; male, Sprague-Dawley, rat, whole blood, po, 10 mg/kg, Rat, PO 10.0 mg/kg, read-out: AUC): 2100 ng·h/mL
AUC ([2]; male, Sprague-Dawley, rat, whole blood, po, 10 mg/kg, Rat, PO 10.0 mg/kg, read-out: AUC Extrap): 2310 ng·h/mL
clearance ([2]; male, Sprague-Dawley, whole blood, Rat, IV 2.0 mg/kg): 16.4 mL/min/kg
Vd ([2]; male, Sprague-Dawley, whole blood, Rat, IV 2.0 mg/kg, read-out: Vdss): 21.6 L/kg
Cmax [2, 3]: 149 ng/mL
Tmax [2, 3]: 3.33 h
bioavailability ([2]; male, Sprague-Dawley, whole blood, Rat, PO 10.0 mg/kg, read-out: Bioavailability): 20.6%
half-life ([2]; male, Sprague-Dawley, Rat, IV 2.0 mg/kg, whole blood, 24 h, read-out: T½ (converted)): 9.71 h
clinically relevant abnormalities during dosing and sampling ([2]; rats, 2 mg/kg IV and 10 mg/kg PO): no abnormalities were noted
inhibition at 100 µM (P-glycoprotein): 1%
